Test results published in patent US20090105278A1, “Selective inhibitors of human corticosteroid syntheses” (Universitat Des Saarlandes, priority 2004, published 2009).
Where a name gives a salt, the structure may show the parent alone.

How the values were obtained:
human CYP17 = molecular target: T1, human CYP17 (Homo sapiens, UniProt P05093); test: Percent inhibition of CYP17 (membrane fraction of E. coli pJL17/OR); format: biochemical; details: E. coli which expresses human CYP17; 5 mg/ml protein; progesterone substrate 2.5 μM; inhibitor 2.5 μM; read-out: % Inhibition human CYP17
T1 construct: made in house; host or cells: E. coli pJL17/OR (membrane fraction)
T1 sequence (P05093 1-508): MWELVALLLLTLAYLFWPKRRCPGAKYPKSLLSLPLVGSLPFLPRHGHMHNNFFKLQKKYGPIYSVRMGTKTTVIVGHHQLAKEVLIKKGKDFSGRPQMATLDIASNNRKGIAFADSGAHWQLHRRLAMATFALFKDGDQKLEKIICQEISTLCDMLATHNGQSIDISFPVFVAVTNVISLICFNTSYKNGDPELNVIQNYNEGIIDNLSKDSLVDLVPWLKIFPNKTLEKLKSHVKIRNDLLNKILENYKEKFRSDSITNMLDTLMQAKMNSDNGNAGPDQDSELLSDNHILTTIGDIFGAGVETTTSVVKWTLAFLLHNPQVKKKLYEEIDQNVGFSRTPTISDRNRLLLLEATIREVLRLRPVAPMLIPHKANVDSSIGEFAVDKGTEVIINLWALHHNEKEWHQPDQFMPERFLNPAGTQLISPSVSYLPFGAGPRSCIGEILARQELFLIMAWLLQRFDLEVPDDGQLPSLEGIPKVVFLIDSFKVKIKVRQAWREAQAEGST
Protocol: The recombinantly altered E. coli strain pJL17/OR, in which human CYP17 and rat NADPH-P450-reductase were coexpressed, was grown and stored according to the method of Ehmer et al. (Ehmer, P. B. et al., J. Steroid Biochem. Mol. Biol. 75: 57-63 (2000)). For isolating the membrane fraction, 5 ml of the bacterial cell suspension with an OD578 of 50 was washed with phosphate buffer (0.05 M; pH 7.4; 1 mM MgCl2; 0.1 mM EDTA and 0.1 mM DTT). The bacteria were removed by centrifugation and resuspended in 10 ml of ice cold TES buffer (0.1 M tris-acetate; pH 7.8; 0.5 mM EDTA; 0.5 M sucrose). Four milligrams of lysozyme in 10 ml of ice cold water was added to obtain a final concentration of 0.2 mg/ml. This was followed by incubation for 30 minutes under continued shaking on ice. The spheroblasts were obtained by a renewed centrifugation step at 12,000 g for 10 min and again resuspended in 3 ml of ice cold phosphate buffer (composition see above, additionally 0.5 mM PMSF).
After freezing and thawing, the cells were lysed on ice with an ultrasonic disintegrator. The whole cells and the cell debris were centrifuged off at 3000 g for 7 min. The supernatant was again centrifuged at 50,000 g for 20 min at 4° C. A membrane pellet sedimented and was resuspended in 2 ml of phosphate buffer (composition see above) with […] by means of an Ultra-Turrax mixer. […] Aliquots with an approximate protein concentration of 5 mg/ml were stored at −70° C. until use.
Control incubations were performed in parallel with 5 μl DMSO without urea. The reaction was started by adding 50 μl of a membrane suspension diluted 1 to 5 in phosphate buffer (0.8 to 1 mg of protein per ml). After thoroughly mixing the components, the mixture was incubated at 37° C. for 30 min.
The steroids were extracted with 1 ml of EtOAc. […] After the centrifugation, 800 μl of the organic phase was removed, placed into a new vessel and evaporated to dryness. The samples were dissolved in 50 μl of a water-methanol mixture (1:1) and analyzed by HPLC. The substrate conversion was calculated from the ratio of the areas of the product peaks (17α-hydroxyprogesterone and 16α-hydroxyprogesterone) to that of the substrate peak. The activity of the inhibitors was calculated from the reduced substrate conversion after the addition of inhibitors in accordance with the following formula: […]

human placental CYP19 = molecular target: T2, human placental CYP19 (Homo sapiens, UniProt P11511); test: IC50 of CYP19 (human placental microsomes); format: biochemical; details: human placental CYP19; testosterone substrate 2.5 μM
T2 construct: The enzyme was obtained from the microsome fraction of fresh human placenta; from tissue; host or cells: human placenta, microsomal fraction
T2 sequence (P11511 1-503): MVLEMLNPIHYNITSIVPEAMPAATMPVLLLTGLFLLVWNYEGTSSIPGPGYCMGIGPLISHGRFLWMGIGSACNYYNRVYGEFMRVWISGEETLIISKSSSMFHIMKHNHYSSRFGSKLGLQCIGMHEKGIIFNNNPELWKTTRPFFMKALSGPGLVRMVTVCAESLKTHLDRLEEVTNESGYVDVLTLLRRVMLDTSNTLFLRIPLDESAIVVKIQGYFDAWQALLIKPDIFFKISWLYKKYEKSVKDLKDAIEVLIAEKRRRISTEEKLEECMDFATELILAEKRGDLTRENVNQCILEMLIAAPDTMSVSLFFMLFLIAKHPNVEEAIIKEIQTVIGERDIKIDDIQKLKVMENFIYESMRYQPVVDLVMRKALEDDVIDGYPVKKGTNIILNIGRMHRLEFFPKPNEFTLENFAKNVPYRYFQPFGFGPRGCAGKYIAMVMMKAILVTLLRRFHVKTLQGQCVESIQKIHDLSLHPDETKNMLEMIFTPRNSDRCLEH
Protocol: The isolated microsomes were suspended in a minimum volume of phosphate buffer (0.05 M; pH 7.4; […]). In addition, DTT (10 mM) and EDTA (1 mM) were added to protect the enzyme from degradation reactions.
[…] […] The compounds to be tested were dissolved in DMSO and diluted with buffer to the desired concentration. The final DMSO concentration of the control and inhibitor incubations was about 20%. Each vessel was preincubated in a water bath at 30° C. for 5 min. The reaction was started by adding the microsomal protein (0.1 mg). The total volume of each mixture was 200 μl. After 14 min, the reaction was quenched by adding 200 μl of ice cold 1 mM HgCl2 solution. Two hundred microliters of a 2% aqueous suspension of dextran-coated charcoal, DCC) was added for absorbing the steroids, and the vessels were shaken for 20 min. Thereafter, the charcoal was centrifuged off at 1500 g for 5 min. The radioactive water present in the supernatant (^3H2O) was assayed by scintillation measurement using an LKB-Wallac beta counter. The calculation of the IC50 values was effected by a semilogarithmic plot of the percent inhibition against the inhibitor concentration.

human CYP11B2 [1] = molecular target: T3, human CYP11B2 (Homo sapiens, UniProt P19099); test: Screening test in transgenic fission yeast (S. pombe PE1) expressing human CYP11B2; format: cell-based; design: expressed in transfected cells; details: S. pombe cells which express human CYP11B2, deoxycorticosterone substrate 100 nM, inhibitor 500 nM
T3 sequence (P19099 25-503): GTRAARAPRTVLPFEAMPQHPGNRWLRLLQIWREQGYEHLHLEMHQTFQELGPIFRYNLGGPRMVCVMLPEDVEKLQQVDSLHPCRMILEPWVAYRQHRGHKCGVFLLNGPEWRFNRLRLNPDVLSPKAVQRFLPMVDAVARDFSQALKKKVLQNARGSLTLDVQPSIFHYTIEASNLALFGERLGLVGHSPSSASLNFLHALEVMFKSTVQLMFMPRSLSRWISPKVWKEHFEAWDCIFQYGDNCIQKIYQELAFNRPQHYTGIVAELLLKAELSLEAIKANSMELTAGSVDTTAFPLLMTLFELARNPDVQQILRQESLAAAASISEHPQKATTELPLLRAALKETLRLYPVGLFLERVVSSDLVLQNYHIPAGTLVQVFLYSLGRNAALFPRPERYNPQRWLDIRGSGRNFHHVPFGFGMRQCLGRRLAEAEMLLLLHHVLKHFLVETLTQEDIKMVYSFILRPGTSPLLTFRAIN
Protocol: 492.5 μl of this cell suspension was admixed with 5 μl of inhibitor solution (50 μM of the compound to be tested in ethanol or DMSO) and incubated at 32° C. for 15 min. Controls were admixed with 5 μl of ethanol. […] The test was quenched by extracting the sample with 500 μl of EtOAc. After centrifugation (10,000 g, 2 min), the EtOAc phase was removed and evaporated to dryness. […] The reaction of the substrate to form corticosterone was analyzed by HPTLC (see below).
The quantification of the spots for the substrate deoxycorticosterone and the products corticosterone (and, if detectable, 18-hydroxycorticosterone and aldosterone) was effected with the related evaluation program AIDA. […] The calculation of the conversion rate was effected according to equation 1.
(§1) The plate was developed twice with the mobile solvent chloroform:methanol:water (300:20:1). Unlabeled 11-deoxycorticosterone and corticosterone were applied as a reference for the CYP11B1 reaction. For the CYP11B2 reaction, 11-deoxycorticosterone, corticosterone, 18-hydroxycorticosterone and aldosterone were used as references. The detection of the unlabeled references was effected at 260 nm. Subsequently, imaging plates (BAS MS2340, for ^14C samples, Raytest, Straubenhardt, Germany) were exposed to the HPTLC plates for 48 h. The imaging plates were scanned with the phosphoimager system Fuji FLA 3000 (Raytest, Straubenhardt, Germany), and the steroids were quantified.

human CYP11B2 [2] = molecular target: T3, human CYP11B2; test: V79 MZh 11B2 cells inhibition test; format: cell-based; design: expressed in transfected cells; host or cells: V79 MZh11B2 (Chinese hamster lung fibroblasts); details: for IC50: hamster fibroblasts which express human CYP11B2, deoxycorticosterone substrate 100 nM, read-out: IC50 V79 11B2 hCYP11B2
Protocol: (§2) Both cell lines were cultured in DMEM^+ containing […] and the antibiotics penicillin and streptomycin (10%) for protection from bacterial contamination. The cells were passaged every 2-3 days after treatment with trypsin/EDTA because the doubling rate was 1-2 days depending on the number of cells. […] When there was further need, freshly thawed cells were employed.
(§3) Thereafter, the plate was stored at 37° C. and […] in a CO2 incubator. The V79 MZh 11B1 cells were incubated for 120 min, and the V79 MZh 11B2 cells were incubated for 40 min. Controls without inhibitor were treated in the same way. The enzyme reactions were quenched by extracting the supernatant with 500 μl of EtOAc. The samples were centrifuged (10,000 g, 2 min), the solvent was removed and evaporated.
For V79 MZh11B2, the conversion rate was obtained in accordance with equation 3: […]
(§4) It was calculated by determining the percent inhibition for at least 3 different inhibitor concentrations, which must all be in the linear range of the sigmoidal IC50 curve (log C/% inhibition).
(§5) The calculation was effected by linear regression. The values determined were used only if they formed a straight line with a reliability of […].
as §1

human CYP11B1 = molecular target: T4, human CYP11B1 (Homo sapiens, UniProt P15538); test: V79 MZh 11B1 cells inhibition test; format: cell-based; details: for IC50: hamster fibroblasts which express human CYP11B1, deoxycorticosterone substrate 100 nM, read-out: IC50 V79 11B1 hCYP11B1
T4 construct: expressed in transfected cells; host or cells: V79 MZh11B1 (Chinese hamster lung fibroblasts)
T4 sequence (P15538 25-503): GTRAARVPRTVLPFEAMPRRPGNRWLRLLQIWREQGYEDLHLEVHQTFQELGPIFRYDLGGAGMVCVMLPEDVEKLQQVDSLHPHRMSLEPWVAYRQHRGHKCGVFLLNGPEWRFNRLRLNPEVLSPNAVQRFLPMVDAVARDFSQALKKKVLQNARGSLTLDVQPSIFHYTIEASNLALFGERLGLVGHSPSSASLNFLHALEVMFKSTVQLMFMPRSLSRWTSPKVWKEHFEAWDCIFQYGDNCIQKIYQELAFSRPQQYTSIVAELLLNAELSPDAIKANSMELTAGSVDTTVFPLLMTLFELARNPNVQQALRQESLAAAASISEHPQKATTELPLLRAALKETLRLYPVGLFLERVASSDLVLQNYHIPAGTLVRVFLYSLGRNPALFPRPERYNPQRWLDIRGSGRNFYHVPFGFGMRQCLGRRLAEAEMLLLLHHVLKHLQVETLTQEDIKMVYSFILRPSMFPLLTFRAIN
Protocol: as §2
as §3, with “The V79 MZh 11B1 cells were incubated for 120 min, and the V79 MZh 11B2 cells were incubated for 40 min.” left out
as §4, §5, §1

Structure (SMILES): COc1cc2c(cc1OC)/C(=C/c1cccnc1)CCC2.Cl
- melting point: 197 °C

Structure (SMILES): COc1cc2c(cc1OC)/C(=C/c1ccncc1)CCC2.Cl
- melting point: 197 °C

Structure (SMILES): C(=C1c2ccccc2-c2ccccc21)c1cccnc1.Cl
- melting point: 241 °C

Structure (SMILES): Cl.N#Cc1ccc2c(c1)/C(=C/c1cnc[nH]1)CCC2
- melting point: 217 °C

Structure (SMILES): N#Cc1ccc2c(c1)/C(=C\c1cnc[nH]1)CCC2.O=C(O)C(=O)O
- melting point: 197 °C

Structure (SMILES): Fc1ccc2c(c1)CC/C2=C\c1cnc[nH]1 (as salt: chloride) [Compound 47a, 5-[(E)-(5-Fluoro-2,3-dihydro-1H-indene-1-ylidenemethyl]-1H-imidazolium chloride]
- melting point: 245 °C

Structure (SMILES): Fc1ccc2c(c1)CC/C2=C\c1cccnc1 (as salt: hydrochloride) [Compound 5a, 3-[(E)-(5-Fluoro-2,3-dihydro-1H-indane-1-ylidene)methyl]pyridine Hydrochloride]
- melting point: 245 °C

Structure (SMILES): C(=C1/CCc2ccccc21)/c1ccncc1 [Compound 2a, 4-[(E)-2,3-Dihydro-1H-indane-1-ylidenemethyl]pyridine Oxalate]
- inhibition at 2.5 µM (human CYP17): 8%
- IC50 (human placental CYP19): 6700 nM
- inhibition at 0.5 µM (human CYP11B2 [1]; read-out: % Inhibition human hCYP11B2): 55%

Structure (SMILES): C/C(=C1/CCc2ccccc21)c1cccnc1.Cl [Compound 38a, 3-[(1E)-1-(2,3-Dihydro-1H-indane-1-ylidene)ethyl]pyridine Hydrochloride]
- IC50 (human CYP11B2 [2]): 96.1 nM
- IC50 (human CYP11B1): 159 nM
- % Inhibition human hCYP11B2 (human CYP11B2 [1]): 67%

Structure (SMILES): c1cncc(-c2ccc3cccc4c3c2CC4)c1 [Compound 50, 3-(1,2-Dihydroacenaphthylene-3-yl)pyridine]
- Selectivity factor IC50 (CYP11B1)/IC50 (CYP11B2) (human CYP11B2 [2]; V79 cells expressing human CYP11B1 or CYP11B2): 245
- IC50 (human CYP11B2 [2]): 10 nM
- Inhibition of human CYP11B1, in words (human CYP11B1; V79 cells): very weak inhibition
- IC50 (human CYP11B1): 2450 nM
